Experimental data from patent US8097422B2, “Kir channel modulators” (Salk Institute for Biological Studies, priority 2007, dated 2012).
Residue numbers refer to the chain shown, from its start. pIC50: −log10 of the molar value.

Key:
Format in all cases: cell-based
[1] = molecular target: T1, IRK1 L245W mutant channel (Mus musculus, UniProt P35561, L245W); assay: whole-cell patch clamp, IRK1 L245W mutant channel; settings: equimolar 50 mM alcohol series
T1 construct: expressed in transfected cells; host or cells: HEK293 / HEK293T
T1 sequence (P35561 1-428 L245W): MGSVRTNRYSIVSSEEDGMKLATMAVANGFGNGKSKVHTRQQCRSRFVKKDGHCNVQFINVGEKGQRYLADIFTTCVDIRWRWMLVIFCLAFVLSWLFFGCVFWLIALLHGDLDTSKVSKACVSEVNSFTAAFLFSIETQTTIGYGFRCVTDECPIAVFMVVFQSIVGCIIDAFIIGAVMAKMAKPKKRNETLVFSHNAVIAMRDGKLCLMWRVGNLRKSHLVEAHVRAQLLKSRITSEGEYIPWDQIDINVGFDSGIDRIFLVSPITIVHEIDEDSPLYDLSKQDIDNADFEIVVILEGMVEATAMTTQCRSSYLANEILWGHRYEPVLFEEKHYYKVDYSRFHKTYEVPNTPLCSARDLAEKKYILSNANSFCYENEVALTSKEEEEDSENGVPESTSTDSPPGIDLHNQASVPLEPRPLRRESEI
Protocol: (§1) Point mutations were introduced by Quickchange site directed mutagenesis kit (Stratagene). The GIRK2 PIP mutant was generated by overlap-PCR method. […] Mutations were confirmed by automated DNA sequencing methods. […] Cells were plated in a 12 well dish, and were transiently transfected using Lipofectamine 2000 (Invitrogen). After 12-24 hrs, cells were re-plated to 12-mm glass coverslips coated with poly-D-[…] microgram/ml). […] The cells were co-transfected with 0.04 micrograms of eYFP cDNA to identify transfected cells. 0.8 micrograms of Muscarinic Receptor 2 (M2R) was also co-transfected for experiments with Carbachol. […] Whole-cell patch clamp recordings were performed 24-72 hrs after transfection. […] Alcohols, 5 μM Carbachol, and 1 mM BaCl2 (diluted in 20K solution) were applied from outside the cell with the rapid perfusion system (Warner Instruments). […] Current-voltage relationships also were obtained from the ramp protocol. This protocol was used to measure the inwardly rectifying currents at -100 mV and to ensure stability of recording by monitoring a reversal potential and inward rectification. […] Alcohol and Carbachol modulated currents were measured by averaging two consecutive current readings upon reaching steady state, and subtracting the averaged basal current before and after the application of modulator.

[2] = molecular target: T2, GIRK2 PIP S148T mutant channel (Mus musculus, UniProt P48542, D228N/I234L/M344L/N231K/S148T); assay: whole-cell patch clamp, GIRK2 PIP S148T mutant channel; settings: 50 mM alcohols
T2 construct: expressed in transfected cells; host or cells: HEK293 / HEK293T
T2 sequence (P48542 1-425 S148T/D228N/N231K/I234L/M344L): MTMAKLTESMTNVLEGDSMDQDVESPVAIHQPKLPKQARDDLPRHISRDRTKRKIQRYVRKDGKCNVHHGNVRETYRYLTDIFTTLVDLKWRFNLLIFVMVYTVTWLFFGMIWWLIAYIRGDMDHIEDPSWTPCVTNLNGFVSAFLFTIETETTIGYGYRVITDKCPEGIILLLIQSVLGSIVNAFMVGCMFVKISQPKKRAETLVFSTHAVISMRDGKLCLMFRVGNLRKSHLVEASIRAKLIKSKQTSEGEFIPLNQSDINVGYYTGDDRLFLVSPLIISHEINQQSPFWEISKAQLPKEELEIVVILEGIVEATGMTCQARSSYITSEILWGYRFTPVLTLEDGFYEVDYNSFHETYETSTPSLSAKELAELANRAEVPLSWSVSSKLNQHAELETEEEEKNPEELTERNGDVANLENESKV
Protocol: as §1

[3] = molecular target: T3, GIRK4 S143T mutant channel (GIRK4*) (Rattus norvegicus, UniProt P48548, S143T); assay: whole-cell patch clamp, GIRK4 S143T (GIRK4*) channel; settings: for modulation of GIRK4 S143T mutant channel, mean percentage change from basal: n=7; for activation of GIRK4*, mean percentage change from basal current: wild type GIRK4*, n=8
T3 construct: expressed in transfected cells; host or cells: HEK293 / HEK293T
T3 sequence (P48548 1-419 S143T): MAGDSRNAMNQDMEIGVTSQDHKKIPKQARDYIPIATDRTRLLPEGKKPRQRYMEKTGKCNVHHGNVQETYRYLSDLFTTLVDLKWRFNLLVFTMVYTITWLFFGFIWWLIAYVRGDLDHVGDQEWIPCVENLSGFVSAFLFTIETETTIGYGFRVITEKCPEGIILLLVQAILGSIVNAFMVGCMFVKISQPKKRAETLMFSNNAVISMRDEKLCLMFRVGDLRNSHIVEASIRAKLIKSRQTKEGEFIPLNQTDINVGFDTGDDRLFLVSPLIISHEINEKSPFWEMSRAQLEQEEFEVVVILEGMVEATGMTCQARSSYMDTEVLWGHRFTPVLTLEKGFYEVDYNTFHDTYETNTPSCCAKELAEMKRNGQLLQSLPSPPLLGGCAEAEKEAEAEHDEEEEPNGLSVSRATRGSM
Protocol: as §1

GIRK2 PIP L257W mutant = molecular target: T4, GIRK2 PIP L257W mutant (Mus musculus, UniProt P48542, D228N/I234L/L257W/M344L/N231K); assay: whole-cell patch clamp, GIRK2 PIP L257W mutant channel; settings: for pIC50: dose response, read-out: IC50 for inhibition of GIRK2 PIP L257W mutant; for inhibition of GIRK2 PIP L257W mutant channel, percentage inhibition: equimolar alcohol series (50 mM)
T4 construct: expressed in transfected cells; host or cells: HEK293 / HEK293T
T4 sequence (P48542 1-425 D228N/N231K/I234L/L257W/M344L): T2 sequence (P48542 1-425 S148T/D228N/N231K/I234L/M344L) with T148S, L257W
Protocol: as §1

[4] = molecular target: T5, GIRK2 L257W mutant channel (Mus musculus, UniProt P48542, L257W); assay: whole-cell patch clamp, GIRK2 L257W mutant channel; settings: n=9; for modulation of GIRK2 L257W, percentage change from basal current (negative = inhibition): alcohols as for wild type (100 mM)
T5 construct: expressed in transfected cells; host or cells: HEK293T
T5 sequence (P48542 1-425 L257W): T2 sequence (P48542 1-425 S148T/D228N/N231K/I234L/M344L) with T148S, N228D, K231N, L234I, L257W, L344M
Protocol: as §1

[5] = 5 μM Carbachol, M2R co-transfected

Compound	inhibition of IRK1 L245W mutant channel, percentage inhibition [1]	inhibition of GIRK2 PIP S148T, percentage inhibition [2]	modulation of GIRK4 S143T mutant channel, mean percentage change from basal [3]	activation of GIRK4*, mean percentage change from basal current [3]	pIC50 (GIRK2 PIP L257W mutant)	inhibition of GIRK2 PIP L257W mutant channel, percentage inhibition (GIRK2 PIP L257W mutant)	modulation of GIRK2 L257W, percentage change from basal current (negative = inhibition) [4]	Carb activation of GIRK4* wild type, % of basal current [3, 5]	G-protein mediated activation, GIRK2 L257W, percentage change from basal current [4, 5]
CC(O)CC(C)(C)O (racemic) [MPD, 2-methyl-2,4-pentanediol]	−27±2%	−36±1%	87±12%	113±14%	~2.11	−84±3%	−97±4%	–	–
1-butanol [1-BuOH]	−20±2%	−28±1%	23±3%	–	–	−99±3%	–	–	–
C[N+](C)(C)CCOC(N)=O [Carbachol]	–	–	–	–	–	–	–	231±38%	12±2%
1-propanol [1-PrOH]	−8±1%	−15±1%	51±6%	64±7%	~2.29	−92±1%	57±6%	–	–
CCO [EtOH, ethanol]	−3±1%	−4±1%	35±4%	36±3%	–	−20±2%	34±3%	–	–
